Experimental data taken from ChEMBL document CHEMBL4261496, “Targeting quinolone- and aminocoumarin-resistant bacteria with new gyramide analogs that inhibit DNA gyrase” (Medchemcomm, 2017).
Converted amounts (≈) assume the structure as drawn. The source made the active and inactive calls. No cut-off for these calls is given here.

Key:
[1] = tested on: Edwardsiella tarda; assay: Antibacterial activity against Edwardsiella tarda clinical isolate after 16 to 18 hrs by broth microdilution method; type: functional
[2] = tested on: Escherichia coli; assay: Ratio of MIC for gyramide-resistant Escherichia coli JW5503 harboring GyrA Ser97Pro mutant to MIC for Escherichia coli JW5503; type: functional
[3] = tested on: Staphylococcus aureus; assay: Antibacterial activity against Staphylococcus aureus subsp. aureus clinical isolate after 16 to 18 hrs by broth microdilution method; type: functional
[4] = tested on: Staphylococcus saprophyticus; assay: Antibacterial activity against Staphylococcus saprophyticus clinical isolate after 16 to 18 hrs by broth microdilution method; type: functional
[5] = tested on: Escherichia coli; assay: Ratio of MIC for novobiocin-resistant Escherichia coli LE316 harboring GyrB Arg136Val mutant to MIC for Escherichia coli HB101; type: functional
[6] = Ratio of MIC for Escherichia coli BW25113 to MIC for Escherichia coli JW5503; type: functional
[7] = tested on: Acinetobacter baumannii; assay: Antibacterial activity against Acinetobacter baumannii clinical isolate after 16 to 18 hrs by broth microdilution method; type: functional
[8] = tested on: Morganella morganii; assay: Antibacterial activity against Morganella morganii clinical isolate after 16 to 18 hrs by broth microdilution method; type: functional
[9] = tested on: Klebsiella pneumoniae; assay: Antibacterial activity against Klebsiella pneumoniae after 16 to 18 hrs by broth microdilution method; type: functional
[10] = tested on: Bacillus cereus; assay: Antibacterial activity against Bacillus cereus after 16 to 18 hrs by broth microdilution method; type: functional
[11] = tested on: Escherichia coli; assay: Antibacterial activity against gyramide-resistant Escherichia coli JW5503 harboring GyrB Thr508Met mutant after 16 to 18 hrs by broth microdilution method; type: functional
[12] = tested on: Escherichia coli; assay: Ratio of MIC for novobiocin-resistant Escherichia coli CC7 harboring GyrB Arg136Ser mutant to MIC for Escherichia coli HB101; type: functional
[13] = tested on: Bacillus subtilis; assay: Antibacterial activity against Bacillus subtilis after 16 to 18 hrs by broth microdilution method; type: functional
[14] = tested on: Escherichia coli; assay: Ratio of MIC for gyramide-resistant Escherichia coli JW5503 harboring GyrA Phe96Leu mutant to MIC for Escherichia coli JW5503; type: functional
[15] = tested on: Escherichia coli; assay: Antibacterial activity against gyramide-resistant Escherichia coli JW5503 harboring GyrA Pro35Thr mutant after 16 to 18 hrs by broth microdilution method; type: functional
[16] = tested on: Escherichia coli; assay: Antibacterial activity against Escherichia coli HB101 after 16 to 18 hrs in presence of PAbetaN by broth microdilution method; type: functional
[17] = tested on: Enterococcus faecium; assay: Antibacterial activity against Enterococcus faecium after 16 to 18 hrs by broth microdilution method; type: functional
[18] = tested on: Escherichia coli; assay: Antibacterial activity against ciprofloxacin-resistant Escherichia coli JW5503 harboring GyrB Ser464Phe mutant after 16 to 18 hrs by broth microdilution method; type: functional
[19] = biological target: DNA gyrase (Escherichia coli, UniProt P0AES4+P0AES6); assay: Inhibition of Escherichia coli DNA gyrase assessed as inhibition of pUC19 supercoiling after 30 mins by agarose gel electrophoresis; type: protein-complex assay
[20] = tested on: Escherichia coli; assay: Antibacterial activity against Escherichia coli BW25113 after 16 to 18 hrs by broth microdilution method; type: functional
[21] = tested on: Escherichia coli; assay: Ratio of MIC for gyramide-resistant Escherichia coli JW5503 harboring GyrA His45Tyr mutant to MIC for Escherichia coli JW5503; type: functional
[22] = tested on: Escherichia coli; assay: Antibacterial activity against Escherichia coli MC4100 after 16 to 18 hrs by broth microdilution method; type: functional
[23] = tested on: Escherichia coli; assay: Antibacterial activity against ciprofloxacin-resistant Escherichia coli JW5503 harboring GyrA Ser83Leu mutant after 16 to 18 hrs by broth microdilution method; type: functional
[24] = tested on: Staphylococcus epidermidis; assay: Antibacterial activity against Staphylococcus epidermidis clinical isolate after 16 to 18 hrs by broth microdilution method; type: functional
[25] = tested on: Escherichia coli; assay: Ratio of MIC for ciprofloxacin-resistant Escherichia coli JW5503 harboring GyrA Ser83Leu mutant to MIC for Escherichia coli JW5503; type: functional
[26] = tested on: Shigella flexneri; assay: Antibacterial activity against Shigella flexneri after 16 to 18 hrs by broth microdilution method; type: functional
[27] = tested on: Escherichia coli; assay: Antibacterial activity against gyramide-resistant Escherichia coli JW5503 harboring GyrA Ser97Pro mutant after 16 to 18 hrs by broth microdilution method; type: functional
[28] = tested on: Pseudomonas aeruginosa; assay: Antibacterial activity against Pseudomonas aeruginosa after 16 to 18 hrs by broth microdilution method; type: functional
[29] = tested on: Escherichia coli; assay: Antibacterial activity against gyramide-resistant Escherichia coli JW5503 harboring GyrA Phe96Leu mutant after 16 to 18 hrs by broth microdilution method; type: functional
[30] = tested on: Enterococcus faecalis; assay: Antibacterial activity against Enterococcus faecalis after 16 to 18 hrs by broth microdilution method; type: functional
[31] = tested on: Escherichia coli; assay: Antibacterial activity against gyramide-resistant Escherichia coli JW5503 harboring GyrA His45Tyr mutant after 16 to 18 hrs by broth microdilution method; type: functional
[32] = tested on: Escherichia coli; assay: Ratio of MIC for ciprofloxacin-resistant Escherichia coli JW5503 harboring GyrA Asp87Gly mutant to MIC for Escherichia coli JW5503; type: functional
[33] = tested on: Escherichia coli; assay: Ratio of MIC for gyramide-resistant Escherichia coli JW5503 harboring GyrB Ser464Phe mutant to MIC for Escherichia coli JW5503; type: functional
[34] = tested on: Klebsiella aerogenes; assay: Antibacterial activity against Enterobacter aerogenes clinical isolate after 16 to 18 hrs by broth microdilution method; type: functional
[35] = tested on: Escherichia coli; assay: Antibacterial activity against Escherichia coli UPEC after 16 to 18 hrs by broth microdilution method; type: functional
[36] = tested on: Escherichia coli; assay: Antibacterial activity against novobiocin-resistant Escherichia coli LE316 harboring GyrB Arg136Val mutant after 16 to 18 hrs in presence of PAbetaN by broth microdilution method; type: functional
[37] = tested on: Escherichia coli; assay: Ratio of MIC for gyramide-resistant Escherichia coli JW5503 harboring GyrA Pro35Thr mutant to MIC for Escherichia coli JW5503; type: functional
[38] = tested on: Streptococcus agalactiae; assay: Antibacterial activity against Streptococcus agalactiae after 16 to 18 hrs by broth microdilution method; type: functional
[39] = tested on: Escherichia coli; assay: Antibacterial activity against Escherichia coli BAS849 after 16 to 18 hrs by broth microdilution method; type: functional
[40] = tested on: Escherichia coli; assay: Ratio of MIC for ciprofloxacin-resistant Escherichia coli JW5503 harboring GyrA Asp87Tyr mutant to MIC for Escherichia coli JW5503; type: functional
[41] = tested on: Escherichia coli; assay: Antibacterial activity against ciprofloxacin-resistant Escherichia coli JW5503 harboring GyrA Asp87Gly mutant after 16 to 18 hrs by broth microdilution method; type: functional
[42] = tested on: Escherichia coli; assay: Antibacterial activity against Escherichia coli HB101 after 16 to 18 hrs by broth microdilution method; type: functional
[43] = biological target: DNA gyrase (Escherichia coli) (UniProt P0AES6+P0AES4); assay: Inhibition of Escherichia coli DNA gyrase ATPase activity up to 100 uM using DNA as substrate after 60 mins; type: protein-complex assay
[44] = tested on: Escherichia coli; assay: Ratio of MIC for novobiocin-resistant Escherichia coli CC5 harboring GyrB Arg136His mutant to MIC for Escherichia coli HB101; type: functional
[45] = tested on: Streptococcus pyogenes; assay: Antibacterial activity against Streptococcus pyogenes after 16 to 18 hrs by broth microdilution method; type: functional
[46] = tested on: Escherichia coli; assay: Ratio of MIC for ciprofloxacin-resistant Escherichia coli JW5503 harboring GyrB Ser464Phe mutant to MIC for Escherichia coli JW5503; type: functional
[47] = tested on: Salmonella typhimurium; assay: Antibacterial activity against Salmonella enterica subsp. enterica serovar Typhimurium after 16 to 18 hrs by broth microdilution method; type: functional
[48] = tested on: Escherichia coli; assay: Antibacterial activity against ciprofloxacin-resistant Escherichia coli JW5503 harboring GyrA Asp87Tyr mutant after 16 to 18 hrs by broth microdilution method; type: functional
[49] = tested on: Escherichia coli; assay: Antibacterial activity against Escherichia coli JW5503 after 16 to 18 hrs by broth microdilution method; type: functional

In the case of Cc1ccc(C(F)(F)F)cc1S(=O)(=O)N[C@@H]1CCN(Cc2ccc(OC3CC3)cc2)C1, the MIC [1] is reported as 8 µg/mL (≈ 17.6 µM), the Ratio [2] is reported as 10 - 100 and the MIC [3] is reported as 8 µg/mL (≈ 17.6 µM). For the same compound, the MIC [4] was 8 µg/mL (≈ 17.6 µM), the Ratio [5] was 2 - 4 and the Ratio [6] was 20. For the same compound, the MIC [7] was > 16 µg/mL, the MIC [8] was > 16 µg/mL and the MIC [9] was > 16 µg/mL. For the same compound, the MIC [10] was 8 µg/mL (≈ 17.6 µM), the MIC [11] was 5.5 µg/mL (≈ 12.1 µM) and the Ratio [12] was 2 - 4. For the same compound, the MIC [13] was 8 µg/mL (≈ 17.6 µM), the Ratio [14] was 10 - 100 and the MIC [15] was 11 µg/mL (≈ 24.2 µM). The MIC [16] was 0.1 µg/mL, the MIC [17] was 8 µg/mL (≈ 17.6 µM) and the MIC [18] was 1.6 µg/mL (≈ 3.52 µM). For the same compound, the IC50 [19] was 170 nM, the MIC [20] was 8 µg/mL (≈ 17.6 µM) and the Ratio [21] was 10 - 100. It also gave an MIC [22] of 16 µg/mL (≈ 35.2 µM), an MIC [23] of 0.4 µg/mL (≈ 0.88 µM) and an MIC [24] of 8 µg/mL (≈ 17.6 µM). For the same compound, the Ratio [25] was 2 - 4, the MIC [26] was 4 µg/mL (≈ 8.8 µM) and the MIC [27] was 22 µg/mL (≈ 48.4 µM). For the same compound, the MIC [28] was > 16 µg/mL, the MIC [29] was 11 µg/mL (≈ 24.2 µM) and the MIC [30] was 16 µg/mL (≈ 35.2 µM). The MIC [31] was 22 µg/mL (≈ 48.4 µM), the Ratio [32] was 2 - 4 and the Ratio [33] was 10 - 100. For the same compound, the MIC [34] was > 16 µg/mL, the MIC [35] was > 16 µg/mL and the MIC [36] was 0.2 µg/mL. The Ratio [37] was 10 - 100, the MIC [38] was 8 µg/mL (≈ 17.6 µM) and the MIC [39] was 1 µg/mL (≈ 2.2 µM). The Ratio [40] was 2 - 4, the MIC [41] was 0.8 µg/mL (≈ 1.76 µM) and the MIC [42] was 4 µg/mL (≈ 8.8 µM). For the same compound, the inhibition [43] was “inactive”, the Ratio [44] was 2 - 4 and the MIC [45] was 4 µg/mL (≈ 8.8 µM). The Ratio [46] was 2 - 4, the MIC [47] was 4 µg/mL (≈ 8.8 µM) and the MIC [48] was 0.2 µg/mL (≈ 0.44 µM).

For Cc1ccc(C#N)cc1S(=O)(=O)N[C@@H]1CCN(Cc2ccc(-c3ccccc3)cc2)C1, the MIC [1] was 8 µg/mL (≈ 18.5 µM), the Ratio [2] was 10 - 100 and the MIC [3] was > 16 µg/mL. The MIC [4] was > 16 µg/mL, the Ratio [5] was 2 - 4 and the Ratio [6] was 80. The MIC [7] was > 16 µg/mL, the MIC [8] was > 16 µg/mL and the MIC [9] was > 16 µg/mL. The MIC [10] was > 16 µg/mL, the MIC [11] was 1.3 µg/mL (≈ 3.01 µM) and the Ratio [12] was 2 - 4. For the same compound, the MIC [13] was > 16 µg/mL, the Ratio [14] was 10 - 100 and the MIC [15] was 5.4 µg/mL (≈ 12.5 µM). For the same compound, the MIC [49] was 0.1 µg/mL (≈ 0.232 µM), the MIC [17] was > 16 µg/mL and the MIC [18] was 0.4 µg/mL (≈ 0.927 µM). The IC50 [19] was 47 nM, the MIC [20] was 8 µg/mL (≈ 18.5 µM) and the Ratio [21] was 10 - 100. The MIC [22] was 8 µg/mL (≈ 18.5 µM), the MIC [24] was > 16 µg/mL and the Ratio [25] was 2 - 4. For the same compound, the MIC [26] was 4 µg/mL (≈ 9.27 µM), the MIC [27] was 22 µg/mL (≈ 51 µM) and the MIC [28] was > 16 µg/mL. The MIC [29] was 2.7 µg/mL (≈ 6.26 µM), the MIC [30] was > 16 µg/mL and the MIC [31] was 22 µg/mL (≈ 51 µM). For the same compound, the Ratio [32] was 2 - 4, the Ratio [33] was 10 - 100 and the MIC [34] was > 16 µg/mL. For the same compound, the MIC [35] was > 16 µg/mL, the MIC [36] was 0.2 µg/mL and the Ratio [37] was 10 - 100. For the same compound, the MIC [38] was > 16 µg/mL, the MIC [39] was 0.5 µg/mL (≈ 1.16 µM) and the Ratio [40] was 2 - 4. The MIC [41] was 0.2 µg/mL (≈ 0.463 µM), the MIC [42] was 1 µg/mL (≈ 2.32 µM) and the inhibition [43] was “inactive”. For the same compound, the Ratio [44] was 2 - 4, the MIC [45] was > 16 µg/mL and the Ratio [46] was 2 - 4. For the same compound, the MIC [47] was 2 µg/mL (≈ 4.63 µM) and the MIC [48] was 0.1 µg/mL (≈ 0.232 µM).
